Test system: THP1 cells
Experiment: Chemotaxis to MCP1
Format: cell-based
Details: Homo sapiens, THP-1; read-out: REC50, THP1 cell chemotaxis to MCP1
Method: As a means of assessing PI3K γ dependent cell function, THP1 cell chemotaxis to MCP-1 was evaluated using a 48 well-chemotaxis chamber. THP1 cells from a human leukemic monocyte lymphoma cell line, (purchased from ATCC Manassas, Va.) were maintained in RPMI 1640 (Invitrogen Ltd., Paisley, UK) with 10% FCS at 37° C. Cells were re-suspended in 0.5% BSA/RPM11640 (2×10^6 cells/mL) and incubated for 10 min at 37° C., 5% CO2. Cell suspension aliquots (500 μL) were then treated either with compounds in neat DMSO or with DMSO as vehicle (2.5 μL) for 1hr (37° C., 5% CO2).
MCP1 (50 nM) was prepared in 0.5% BSA/RPM11640. MCP1 solution (50 μL) was added to each well in the bottom plate of a 48-well chemotaxis chamber (AP48, NeuroProbe Inc., Gaithersburg, Md.). A polycarbonate membrane (8 μm) was mounted on the bottom chamber, and then the top plate was mounted on the bottom chamber and filter membrane. […]
A solution of MTT (50 μL) in 10% FCS phenol red-free RPM11640 was added to each well, and the plate was incubated for 2 hr (37° C., 5% CO2). Neat DMSO (100 μL) was added to each well to extract formazan formed from MTT and the plates were shaken lightly for 1 hr prior to measuring the absorbance at 595 nm (Varioskan® Flash, Thermo-Fisher Scientific). […] Relative EC50 values were determined from concentration-inhibition curves using XL-Fit (idbs, Guildford, UK).

Work on COCCOCCOCC#Cc1cccc2nc(Cn3nc(-c4cc(O)cc(F)c4)c4c(N)ncnc43)n(Cc3ccccc3C(F)(F)F)c(=O)c12 [Compound (I), 2-((4-Amino-3-(3-fluoro-5-hydroxyphenyl)-1H-pyrazolo[3,4-d]pyrimidin-1-yl)methyl)-5-(3-(2-(2-methoxyethoxy)ethoxy)prop-1-yn-1-yl)-3-(2-(trifluoromethyl)benzyl)quinazolin-4(3H)-one] yielded an EC50 of 33.9 nM.
